Measurements taken from patent publication US20060057657A1, “Stem cell selection and differentiation” (Oregon Health & Science University Technology & Research …, priority 2002, published 2006).

How the values were obtained:
Type in all cases: cell-based, mouse
[1] = tested on: ES cells; test: JC-1 fluorescence sensitivity to MDR inhibitors (JC-1 staining and flow cytometry); settings: CsA 20 μM, verapamil 200 μM, reserpine 10 μM
Method: ES cells were maintained in ES cell media consisting of DMEM (no pyruvate, high glucose) (Gibco-BRL), 15% fetal calf serum (FCS) (Hyclone), and supplements (as described in Robertson, E. J. (1987) IRL Press Limited, Oxford, page 71-112). Supplemental Leukemia Inhibitory Factor (LIF) (1:1000 dilution) was prepared by transfecting COS-7 cells (ATCC) with a LIF expression vector, pCAGGS-LIF, then collecting and testing the supernatant 48 hours later (as described in Smith, A. (1991) Journal of Tissue Culture Methods 13:89-94). Irradiated mouse embryonic fibroblasts (MEFs) were derived from d13 embryos for use as feeder cells (as described in Robertson (1987) (supra)). […]
For MDR inhibitor dose response assays, cells were trypsinized for 15 minutes, quenched with ES cell media, triturated to a single cell suspension, and centrifuged at 1000 rpm for 5 minutes. […] Following centrifugation, cells were washed […] with cold HBSS, centrifuged and resuspended in cold PBS at the same concentration, placed on ice, and analyzed within 60 minutes (as described in Cossarizza et al. (1993) Biochem. Biophys. Res. Commun. 197:40-45). […]
Using the cationic fluorescent dye, JC-1, functionally distinct populations of ES cells were identified. […] Generally, less than 5% of the cells maintained a “JC-1 green only” fluorescence profile when treated with any of these inhibitors. […]

[2] = tested on: ES cells; test: ES cell proliferation rate / doubling time under treatment
Method: If grown in galactose as the sole carbon source, a sub-population of cells need to engage in active oxidative phosphorylation to convert galactose to glucose. In one embodiment, ES cells are selected in galactose-containing culture medium for an incubation period of about four days.
(§1) In order to establish the relationship between ES cell JC-1 fluorescence, respiration and differentiation permissiveness, cells may be grown under hypoxic (<2% oxygen) or normnoxic conditions and assayed for JC-1 red/green ratio, oxygen consumption and lactate secretion, proliferation rate, ES cell self-renewal (STAT3 activity), and differentiation permissiveness by chimeric assays. ES cells with high mitochondrial membrane potential (as shown by high JC-1 red/green ratio) display low differentiation permissiveness, while those with low mitochondrial membrane potential (JC-1 green) display high differentiation permissiveness. […] ES cells on galactose also consume about 50% more oxygen than those sustained on glucose. ES cell proliferation rates for control and hypoxic cells (both with and without LIF) may be similar. […] STAT3 activity may be similar for normoxic and hypoxic cells.

[3] = tested on: ES cells; test: Oxygen consumption of ES cells; settings: ES cells on galactose
Text: as §1

[4] = tested on: ES cells; test: Lactate secretion of ES cells; settings: after 24 hours; normoxic and hypoxic ES cells about 80 mg/dl
Text: as §1

[5] = tested on: ES cells; test: JC-1 red/green fluorescence (mitochondrial membrane potential) by flow analysis; settings: galactose-containing culture medium, about four days
Method: In order to assess if cells are primarily using oxidative phosphorylation or glycolysis, mitochondrial inner-membrane potential can be assayed by JC-1 fluorescence (1 ug/ml) in ES cells grown in both the presence (undifferentiated) and absence (differentiation) of LIF.
The cells of Example 1 were stained with 1 μg/ml 5,5′,6,6′-tetrachloro-1,1′,3,3′-tetraethyl-benzimidazolylcarbocyanine iodide (JC-1, Molecular Probes, Eugene, Oreg.) and flow cytometry was performed using a FACSCalibur flow cytometer (Becton Dickinson, San Jose, Calif.). Cells were stained as above and sorted using a FACSVantage SE cell sorter (Becton Dickinson).

COc1ccc(CCN(C)CCCC(C#N)(c2ccc(OC)c(OC)c2)C(C)C)cc1OC (stereo not drawn) [verapamil]
shift of JC-1 fluorescence on addition of inhibitor [1]: dramatic shift of the majority of cells towards red fluorescence

CC[C@H]1/C=C/C=C/C[C@@H](C)[C@H](O)[C@@](C)(O)C(=O)[C@@H](C)[C@H](O)[C@@H](C)C(=O)[C@@H](C)[C@H](O)[C@@H](C)/C=C/C(=O)O[C@@H]2[C@H](C)[C@H](CC1)O[C@]1(CC[C@H](C)[C@H](C[C@@H](C)O)O1)[C@H]2C [oligomycin]
effect on proliferation rates ([2]; oligomycin 3 μM or FCCP+ oligomycin): dramatically reduces proliferation rates

O=CC[C@@H](O)[C@H](O)[C@H](O)CO [2-dG, 2-deoxy glucose]
reduction of proliferation rate ([2]; 2-deoxy glucose 0.5 mM): ≤ 3 fold

O=C[C@H](O)[C@@H](O)[C@@H](O)[C@H](O)CO [galactose]
oxygen consumption, more than cells sustained on glucose [3]: about 50% | lactate secretion [4]: < 10 mg/dL | sub-population of ES cells showing JC-1 red fluorescence [5]: slightly increased | increase of doubling time ([2]; galactose-containing culture medium, about four days): about 25% | doubling time ([2]; galactose-containing culture medium, about four days, 16 hours under standard conditions): 20 h

COC(=O)[C@H]1[C@H]2C[C@@H]3c4[nH]c5cc(OC)ccc5c4CCN3C[C@H]2C[C@@H](OC(=O)c2cc(OC)c(OC)c(OC)c2)[C@@H]1OC [reserpine]
shift of JC-1 fluorescence on addition of inhibitor [1]: dramatic shift of the majority of cells towards red fluorescence
